Experimental data from patent US20200230207A1, “TREATMENT OF BONE GROWTH DISORDERS” (FONDAZIONE TELETHON, priority 2015, published 2020).

What was measured:
GusbKO RCS cells = assay: UVRAG phosphorylation and AV-Lys fusion in GusbKO RCS chondrocytes; assay type: cell-based, rat; details: 1 μM, 6h
Experimental: FIG. 32: mTORC1 inhibits AV-Lys fusion in MPS via UVRAG. A, immunoprecipitation assay testing the increase of UVRAG phosphorylation in RCS GusbKO relative to RCS WT cells. The increase is blunted in the presence of Torin-1 (1 μM; 6h). B, immunoprecipitation assay testing physical interactions between endogenous UVRAG, Rubicon and Beclin-1 in RCS WT and GusbKO RCS chondrocytes after 6h amino acid treatment. Cell lysates were immunoprecipitated with an UVRAG-specific antibody followed by probing with antibodies specific for P-UVRAG (S498), UVRAG, Rubicon or Beclin-1. C, myc-UVRAG was transiently expressed in Gusb^−/− primary chondrocytes. Myc expression, LC3 and P62 were monitored by fluorescence microscope two days post-transfection and after 24h amino acid treatment. Scale bar, 10 μm. Quantitative analysis of P62 and LC3 puncta. Mean value is shown as a horizontal bar. (Student's t-test, *** p<0.0005, n≥20). […] Blot is representative of 3 independent experiments. E, quantification of protein amount normalized to β-actin and relative to RCS WT (ANOVA, P62 P<0.0001, Tukey's post-hoc test, ***p<0.0005, **p<0.005, *p<0.05). […] Scale bar, 10 μm. Quantification of Lamp-1-LC3 co-localization is shown as mean (±s.e.m.) of Mander's Coefficients resulting from three independent experiments (Student's t-test, *p<0.05).

[1] = tested on: MPS VII primary chondrocytes; assay: mTORC1 signaling and autophagy flux in MPS VII primary chondrocytes treated with Torin1; assay type: cell-based, mouse; details: 1 μM, 24 hours
Experimental: FIG. 28: Pharmacological inhibition of mTORC1 restores autophagy flux in MPS VII chondrocytes. α-b, biochemical analysis in primary chondrocytes treated with Torin1 (1 μM) for 24 hours (a) and quantification (b). Data shown in (b) are mean+SE of 3 independent experiments.
Primary chondrocytes were isolated from the rib cage of P5 mice (wild-type and MPS VII) and were plated at the density of 10^5 cells/cm^2. After 3 days in culture cells were splitted in 12 wells chamber, synchronized with AA, treated with Torin1 (1 μM) for 24 hours and harvested for biochemical analysis.

[2] = tested on: kidney transplanted children; details: small series of kidney transplanted children; cited from earlier work
young rats = details: cited from earlier work

Compound | UVRAG serine 497 (S497) phosphorylation (GusbKO RCS cells) | LC3 II and p62 levels [1] | autophagy defects [1] | phosphorylation of mTORC1 substrates [1] | growth rate compared with control group not treated [2] | longitudinal growth (young rats; rats) | angiogenesis, proliferation and hypertrophy of growth cartilage chondrocytes (young rats; young rats)
CCC(=O)N1CCN(c2ccc(-n3c(=O)ccc4cnc5ccc(-c6cnc7ccccc7c6)cc5c43)cc2C(F)(F)F)CC1 [Torin1] | blunted | normalization | rescues | completely suppresses | – | – | –
CO[C@H]1C[C@@H]2CC[C@@H](C)[C@@](O)(O2)C(=O)C(=O)N2CCCC[C@H]2C(=O)O[C@H]([C@H](C)C[C@@H]2CC[C@@H](O)[C@H](OC)C2)CC(=O)[C@H](C)/C=C(\C)[C@@H](O)[C@@H](OC)C(=O)[C@H](C)C[C@H](C)/C=C/C=C/C=C/1C [rapamycin] | – | – | – | – | lower growth rate | impairs longitudinal growth | disrupts angiogenesis and decreases proliferation and hypertrophy of growth cartilage chondrocytes
